These results are taken from US9309238B2, “Imidazo [1,2-a]pyridine compounds, synthesis thereof, and methods of using same” (priority 2009, dated 2016).

Usually MIC90 stands for the lowest concentration that inhibits either 90% of growth or 90% of the strains tested, depending on the study. For orientation: MIC means the least concentration at which growth counts as inhibited. In general, IC50 refers to the concentration that inhibits the measured activity by half.

For one data set, the system named is M. bovis BCG. Nature of the data set: NTM activity, M. bovis BCG. Format: cell-based.
In a further data set the test system is M. avium. Nature of the data set: NTM activity, M. avium. In kind it is cell-based.
Another data set deals with M. kansasii. Nature of the data set: NTM activity, M. kansasii. Format: cell-based.
Another data set deals with M. chelonae. Nature of the data set: NTM activity, M. chelonae. Format: cell-based.
The next data set has as its system M. marinum. Nature of the data set: NTM activity, M. marinum. Format: cell-based.
In data set [1] the test system is MDR-TB. The settings on record: current TB clinical candidates; cited from earlier work.
In data set [2] the test system is H37Rv TB. The following applies: current TB clinical candidates; cited from earlier work.
The subject of another data set is TB. The following applies: strain not stated; cited from earlier work.
The test system of another data set is HeLa cells. Nature of the data set: toxicity to HeLa cells. In kind it is cell-based.
The subject of data set [3] is H37Rv TB. The data set is described as follows: in vitro activity against H37Rv TB (MIC). In kind it is cell-based. The following applies: Mycobacterium tuberculosis.
Another data set deals with M. smegmatis. Nature of the data set: cross screen against M. smegmatis. In kind it is cell-based. The settings on record: Mycolicibacterium smegmatis.
Data set [4] relates to VERO cells (African Green Monkey epithelial kidney cells). The data set is described as follows: VERO cellular toxicity assay. In kind it is cell-based. The settings on record: Chlorocebus sabaeus.
Data set [5] concerns MDR-TB. The data set is described as follows: MIC against MDR-TB (Table 1). In kind it is cell-based. The settings on record: Mycobacterium tuberculosis.
Data set [6] relates to panel of diverse organisms (Gram-positive and Gram-negative strains, yeast, fungi, cancer cell lines, VERO cell line). Nature of the data set: screen against a panel of diverse control organisms and cell lines. Format: cell-based. The following applies: B. subtilis, S. aureus, MRSA, VRE E. faecalis, E. coli, P. aeruginosa, S. salmonicolor, C. albicans, P. notatum, Huvec, K-562, HeLa, PC-3, MCF-7, VERO. An excerpt:
In embodiments, compounds ND-8448, ND-8451 and ND-8454 were all screened against a panel of diverse organisms which included four Gram-positive strains (Bacillus subtilis, Staphylococcus aureus, MRSA Staphylococcus aureus, VRE Enterococcus Faecalis), two Gram-negative strains (E. coli, Pseudomonas aeruginosa), a yeast (Sporobolomyces salmonicolor) and fungi (Candida albicans and Penicillium notatum), as well as five cancer cell lines (Huvec, K-562, HeLa, PC-3 and MCF-7) and the VERO cell line to check for mammalian toxicity.

Where [7] appears, read: Mycobacterium tuberculosis variant bovis BCG, BCG.

Values after ≈ are worked out from the molar mass of the structure shown. Values joined by “and” are separate entries in the source; they are usually repeats but may differ in a detail not shown here. Equal values may be shown once. Read-outs that look alike come from different tables or passages of the source. A value given as a limit tells only on which side of the number the result lay.

Turning to `CC[C@@H](CO)NCCN[C@@H](CC)CO` [EMB, reference compound], the MIC90 was less than 7.813 µM against M. bovis BCG (M. bovis BCG); greater than 2000 µM in the data set with M. avium; less than 7.813 µM against M. kansasii (M. kansasii); greater than 2000 µM in the data set with M. chelonae; 965.56 µM (≈ 197 µg/mL) in the data set on M. marinum.
Take `COc1c(N2CCNC(C)C2)c(F)cc2c(=O)c(C(=O)O)cn(C3CC3)c12` (stereo not shown) [Gatifloxacin]: the MIC result is listed as “MIC = 3.12 μg/mL MDR-TB” with MDR-TB [1] and “MIC = 0.03-1.56 μg/mL H37Rv TB” in the data set on H37Rv TB [2].
With `NNC(=O)c1ccncc1` [INH, Isoniazid, reference compound], the MIC90 with M. bovis BCG (setting [7]) is less than 1.95 µM; with M. avium (Mycobacterium avium) it was greater than 500 µM; in the data set on M. kansasii (Mycobacterium kansasii), 5.82 µM (≈ 0.798 µg/mL); against M. chelonae (Mycobacteroides chelonae) it was greater than 500 µM; with M. marinum (Mycobacterium marinum), greater than 500 µM.
For the compound `Cc1c(CN2CCN(c3cccc(C(F)(F)F)c3)CC2)cc(-c2ccccc2)n1NC(=O)c1ccncc1` [LL-3858], the MIC result in the data set with TB is “MIC = 0.06 μg/mL”.
As for `Cc1ccn2c(C(=O)NCc3ccccc3)c(C)nc2c1` [ND-8454, N-benzyl-2,7-dimethylimidazo[1,2-a]pyridine-3-carboxamide], the MIC90 in the data set with M. bovis BCG (setting [7]) is 0.33 µM (≈ 0.0922 µg/mL); against M. avium (Mycobacterium avium) it was 1.32 µM (≈ 0.369 µg/mL); against M. smegmatis, no less than 5 µg/mL; against M. kansasii (Mycobacterium kansasii) it was 1.32 µM (≈ 0.369 µg/mL); in the data set on M. chelonae (Mycobacteroides chelonae) it was greater than 50 µM; in the data set on M. marinum (Mycobacterium marinum), greater than 50 µM. In addition, in the data set on HeLa cells, the “toxicity to HeLa cells” value is greater than 50 µM. Moreover, the MIC in the data set with H37Rv TB [3] is 0.08 µg/mL and 0.286 µM; against MDR-TB [5], 0.02 µg/mL (≈ 0.0716 µM). This compound also yielded an IC50 in [4] greater than 128 µM. The “activity against control organisms” value in data set [6] is “inactive”.
Compound `Cc1ccn2c(C(=O)NCc3cccc(F)c3)c(C)nc2c1` [ND-9361] showed an MIC90 with M. smegmatis of no less than 5 µg/mL.
On to `Cc1ccn2c(C(=O)NCc3ccc(Oc4ccc(F)cc4)cc3)c(C)nc2c1` [ND-9758], for which the MIC90 with M. bovis BCG (M. bovis BCG) is less than 0.195 µM; in the data set with M. avium, less than 0.195 µM; against M. kansasii (M. kansasii) it was less than 0.195 µM; in the data set on M. chelonae it was 6.07 µM (≈ 2.36 µg/mL); in the data set with M. marinum, 5.21 µM (≈ 2.03 µg/mL).
For the compound `Cc1ccn2c(C(=O)NCc3cccc(OC(C)C)c3)c(C)nc2c1` [ND-9872], the MIC90 was less than 0.195 µM in the data set on M. bovis BCG (M. bovis BCG); 0.71 µM (≈ 0.24 µg/mL) in the data set with M. avium; 0.71 µM (≈ 0.24 µg/mL) against M. kansasii (M. kansasii); greater than 50 µM with M. chelonae; greater than 50 µM with M. marinum.
Turning to `Cc1ccn2c(C(=O)NCc3ncc(C(F)(F)F)cc3Cl)c(C)nc2c1` [ND-9902], the MIC90 was 0.75 µM (≈ 0.287 µg/mL) against M. bovis BCG (M. bovis BCG); 4.42 µM (≈ 1.69 µg/mL) in the data set on M. avium; 4.42 µM (≈ 1.69 µg/mL) against M. kansasii (M. kansasii); greater than 50 µM against M. chelonae; greater than 50 µM in the data set with M. marinum.
Consider `Cc1ccc2nc(C)c(C(=O)NCc3ccc(S(C)(=O)=O)cc3)n2c1` [ND-9965], for which the MIC90 in the data set on M. bovis BCG (M. bovis BCG) was 0.23 µM (≈ 0.0822 µg/mL); in the data set on M. avium it was 6.03 µM (≈ 2.16 µg/mL); with M. kansasii (M. kansasii), 6.03 µM (≈ 2.16 µg/mL); in the data set on M. chelonae, greater than 50 µM; against M. marinum it was greater than 50 µM.
Regarding `C[C@]1(COc2ccc(N3CCC(Oc4ccc(OC(F)(F)F)cc4)CC3)cc2)Cn2cc([N+](=O)[O-])nc2O1` [OPC-67683], the MIC entry in the data set with MDR-TB [1] and in the data set with H37Rv TB [2] was “MIC of 0.006-0.024 μg/mL” in each case.
Turning to `COc1nc2ccc(Br)cc2cc1[C@@H](c1ccccc1)[C@@](O)(CCN(C)C)c1cccc2ccccc12` [TMC207], the MIC result is “MIC = 0.06 μg/mL vs. H37Rv and MDR-TB” with MDR-TB [1]; “MIC = 0.06 μg/mL vs. H37Rv and MDR-TB” in the data set with H37Rv TB [2].
